{"source": "the NIST ThermoML archive (doi:10.1021/je900864n)", "key": {"[1]": {"settings": "101.33 kPa, Liquid"}, "[2]": {"assay": "refractive index (other wavelength) (dimensionless)", "settings": "101 kPa, Liquid, Wavelength=632.8 nm, Standard Abbe refractometry"}, "[3]": {"assay": "refractive index (other wavelength) (dimensionless); wn = mass fraction of the nth substance listed", "settings": "101 kPa, Liquid, Wavelength=632.8 nm, Standard Abbe refractometry"}}, "note": "± gives the expanded uncertainty stated by the source."}
{"smiles": "CCCCn1cc[n+](C)c1.F[B-](F)(F)F", "note": "[1-butyl-3-methylimidazolium tetrafluoroborate]", "values": [{"measurement": "mass density", "setting": "[1]; 293.15 K", "result": "1210.05 ± 1.2", "unit": "kg/m3"}, {"measurement": "mass density", "setting": "[1]; 298.15 K", "result": "1206.32 ± 1.2", "unit": "kg/m3"}, {"measurement": "mass density", "setting": "[1]; 303.15 K", "result": "1202.59 ± 1.2", "unit": "kg/m3"}, {"measurement": "mass density", "setting": "[1]; 308.15 K", "result": "1198.97 ± 1.2", "unit": "kg/m3"}, {"measurement": "mass density", "setting": "[1]; 313.15 K", "result": "1195.24 ± 1.1", "unit": "kg/m3"}, {"measurement": "refractive index", "setting": "[2]; 286.91 K", "result": "1.4228 ± 0.0004"}, {"measurement": "refractive index", "setting": "[2]; 288.89 K", "result": "1.4223 ± 0.0004"}, {"measurement": "refractive index", "setting": "[2]; 290.92 K", "result": "1.4218 ± 0.0005"}, {"measurement": "refractive index", "setting": "[2]; 293.04 K", "result": "1.4212 ± 0.0005"}, {"measurement": "refractive index", "setting": "[2]; 295.03 K", "result": "1.4207 ± 0.0004"}, {"measurement": "refractive index", "setting": "[2]; 297.04 K", "result": "1.4202 ± 0.0004"}, {"measurement": "refractive index", "setting": "[2]; 299.02 K", "result": "1.4197 ± 0.0004"}, {"measurement": "refractive index", "setting": "[2]; 304.12 K", "result": "1.4184 ± 0.0004"}, {"measurement": "refractive index", "setting": "[2]; 309.02 K", "result": "1.4171 ± 0.0005"}, {"measurement": "refractive index", "setting": "[2]; 314.35 K", "result": "1.4157 ± 0.0004"}, {"measurement": "refractive index", "setting": "[2]; 318.92 K", "result": "1.4146 ± 0.0004"}]}
{"smiles": "OCCCCO", "note": "[1,4-butanediol] + CCCCn1cc[n+](C)c1.F[B-](F)(F)F", "values": [{"measurement": "refractive index", "setting": "[3]; 296.24 K, w2 = 0.894", "result": "1.4221 ± 0.0004"}, {"measurement": "refractive index", "setting": "[3]; 298.19 K, w2 = 0.894", "result": "1.4216 ± 0.0004"}, {"measurement": "refractive index", "setting": "[3]; 300.13 K, w2 = 0.894", "result": "1.4211 ± 0.0004"}, {"measurement": "refractive index", "setting": "[3]; 301.24 K, w2 = 0.786", "result": "1.4216 ± 0.0004"}, {"measurement": "refractive index", "setting": "[3]; 302.15 K, w2 = 0.894", "result": "1.4206 ± 0.0004"}, {"measurement": "refractive index", "setting": "[3]; 303.16 K, w2 = 0.786", "result": "1.4211 ± 0.0004"}, {"measurement": "refractive index", "setting": "[3]; 303.25 K, w2 = 0.686", "result": "1.4223 ± 0.0004"}, {"measurement": "refractive index", "setting": "[3]; 304.14 K, w2 = 0.894", "result": "1.42 ± 0.0004"}, {"measurement": "refractive index", "setting": "[3]; 304.22 K, w2 = 0.579", "result": "1.4237 ± 0.0004"}, {"measurement": "refractive index", "setting": "[3]; 304.24 K, w2 = 0.786", "result": "1.4208 ± 0.0004"}, {"measurement": "refractive index", "setting": "[3]; 305.26 K, w2 = 0.686", "result": "1.4218 ± 0.0004"}, {"measurement": "refractive index", "setting": "[3]; 306.24 K, w2 = 0.579", "result": "1.4231 ± 0.0004"}, {"measurement": "refractive index", "setting": "[3]; 306.25 K, w2 = 0.094", "result": "1.4367 ± 0.0004"}, {"measurement": "refractive index", "setting": "[3]; 306.69 K, w2 = 0.894", "result": "1.4194 ± 0.0004"}, {"measurement": "refractive index", "setting": "[3]; 306.7 K, w2 = 0.484", "result": "1.4247 ± 0.0004"}, {"measurement": "refractive index", "setting": "[3]; 307.2 K, w2 = 0.094", "result": "1.4364 ± 0.0004"}, {"measurement": "refractive index", "setting": "[3]; 307.21 K, w2 = 0.786", "result": "1.42 ± 0.0004"}, {"measurement": "refractive index", "setting": "[3]; 307.29 K, w2 = 0.686", "result": "1.4212 ± 0.0004"}, {"measurement": "refractive index", "setting": "[3]; 308.22 K, w2 = 0.484", "result": "1.4243 ± 0.0004"}, {"measurement": "refractive index", "setting": "[3]; 308.24 K, w2 = 0.094", "result": "1.4361 ± 0.0004"}, {"measurement": "refractive index", "setting": "[3]; 308.27 K, w2 = 0.579", "result": "1.4225 ± 0.0004"}, {"measurement": "refractive index", "setting": "[3]; 309.2 K, w2 = 0.686", "result": "1.4207 ± 0.0004"}, {"measurement": "refractive index", "setting": "[3]; 309.23 K, w2 = 0.094", "result": "1.4358 ± 0.0004"}, {"measurement": "refractive index", "setting": "[3]; 309.24 K, w2 = 0.786", "result": "1.4195 ± 0.0004"}, {"measurement": "refractive index", "setting": "[3]; 309.26 K, w2 = 0.381", "result": "1.4264 ± 0.0004"}, {"measurement": "refractive index", "setting": "[3]; 309.55 K, w2 = 0.19", "result": "1.4322 ± 0.0004"}, {"measurement": "refractive index", "setting": "[3]; 309.73 K, w2 = 0.484", "result": "1.4238 ± 0.0004"}, {"measurement": "refractive index", "setting": "[3]; 309.88 K, w2 = 0.286", "result": "1.4289 ± 0.0004"}, {"measurement": "refractive index", "setting": "[3]; 310.17 K, w2 = 0.094", "result": "1.4355 ± 0.0004"}, {"measurement": "refractive index", "setting": "[3]; 310.22 K, w2 = 0.579", "result": "1.422 ± 0.0004"}, {"measurement": "refractive index", "setting": "[3]; 310.64 K, w2 = 0.381", "result": "1.426 ± 0.0004"}, {"measurement": "refractive index", "setting": "[3]; 311.22 K, w2 = 0.286", "result": "1.4285 ± 0.0004"}, {"measurement": "refractive index", "setting": "[3]; 311.22 K, w2 = 0.686", "result": "1.4202 ± 0.0004"}, {"measurement": "refractive index", "setting": "[3]; 311.25 K, w2 = 0.19", "result": "1.4317 ± 0.0004"}, {"measurement": "refractive index", "setting": "[3]; 311.33 K, w2 = 0.484", "result": "1.4234 ± 0.0004"}, {"measurement": "refractive index", "setting": "[3]; 311.85 K, w2 = 0.786", "result": "1.4188 ± 0.0004"}, {"measurement": "refractive index", "setting": "[3]; 312.19 K, w2 = 0.579", "result": "1.4214 ± 0.0004"}, {"measurement": "refractive index", "setting": "[3]; 312.27 K, w2 = 0.094", "result": "1.4349 ± 0.0004"}, {"measurement": "refractive index", "setting": "[3]; 312.31 K, w2 = 0.381", "result": "1.4255 ± 0.0004"}, {"measurement": "refractive index", "setting": "[3]; 312.78 K, w2 = 0.19", "result": "1.4312 ± 0.0004"}, {"measurement": "refractive index", "setting": "[3]; 312.88 K, w2 = 0.484", "result": "1.4229 ± 0.0004"}, {"measurement": "refractive index", "setting": "[3]; 313 K, w2 = 0.286", "result": "1.4279 ± 0.0004"}, {"measurement": "refractive index", "setting": "[3]; 313.28 K, w2 = 0.686", "result": "1.4196 ± 0.0004"}, {"measurement": "refractive index", "setting": "[3]; 313.79 K, w2 = 0.381", "result": "1.4251 ± 0.0004"}, {"measurement": "refractive index", "setting": "[3]; 314.29 K, w2 = 0.19", "result": "1.4308 ± 0.0004"}, {"measurement": "refractive index", "setting": "[3]; 314.29 K, w2 = 0.579", "result": "1.4208 ± 0.0004"}, {"measurement": "refractive index", "setting": "[3]; 314.31 K, w2 = 0.484", "result": "1.4225 ± 0.0004"}, {"measurement": "refractive index", "setting": "[3]; 314.32 K, w2 = 0.094", "result": "1.4343 ± 0.0004"}, {"measurement": "refractive index", "setting": "[3]; 314.39 K, w2 = 0.286", "result": "1.4275 ± 0.0004"}, {"measurement": "refractive index", "setting": "[3]; 315.65 K, w2 = 0.381", "result": "1.4246 ± 0.0004"}, {"measurement": "refractive index", "setting": "[3]; 315.79 K, w2 = 0.286", "result": "1.4271 ± 0.0004"}, {"measurement": "refractive index", "setting": "[3]; 316.13 K, w2 = 0.19", "result": "1.4302 ± 0.0004"}, {"measurement": "refractive index", "setting": "[3]; 317.3 K, w2 = 0.19", "result": "1.4299 ± 0.0004"}, {"measurement": "refractive index", "setting": "[3]; 317.35 K, w2 = 0.286", "result": "1.4266 ± 0.0004"}, {"measurement": "refractive index", "setting": "[3]; 317.38 K, w2 = 0.381", "result": "1.4241 ± 0.0004"}]}
